According to US6217879A, “Enzyme-decomposed materials of laver and uses thereof” (Shirako Co., Ltd., priority 1998, dated 2001):

Assay: Anti-oxidant action, linoleic acid peroxide number by rhodan iron method
Conditions: 3 mg α-tocopherol, 50° C.
Experimental: The respective fractions were measured for anti-oxidant activity in the following manner.
This solution was sealed in a test tube equipped with a screw and left in a thermostatic chamber at 50° C., and the peroxide number of the linoleic acid was measured every 48 hours by the rhodan iron method. […] The number of days elapsed until the absorbance at 500 nm reached 0.35 was assumed to be induction period (days).

Question: For Cc1c(C)c2c(c(C)c1O)CCC(C)(CCCC(C)CCCC(C)CCCC(C)C)O2 (stereo not drawn) [α-tocopherol], which “Induction period (days until absorbance at 500 nm reached 0.35)” value is on record?
Answer: Its value is 8 days.
